Source: publication PMC6562952, “Experimental and Computational Study to Reveal the Potential of Non-Polar Constituents from Hizikia fusiformis as Dual Protein Tyrosine Phosphatase 1B and α-Glucosidase Inhibitors” (Marine Drugs, 2019)
Where two headings read alike, the source gives them in different places.

Assays:
Yeast α-glucosidase = assay: In vitro α-glucosidase inhibitory activity assay; type: biochemical; conditions: for IC50: mean ± SD of triplicate experiments; for α-glucosidase inhibitory activity (in words): under the tested concentration
Experimental: Enzyme inhibition studies were carried out spectrophotometrically in a 96-well micro-plate reader using a procedure reported by Li et al..

[1] = target: T1, truncated form of human recombinant PTP1B (amino acid 1-322) (Homo sapiens, UniProt P18031); assay: In vitro PTP1B inhibitory activity assay (pNPP substrate); conditions: for IC50: mean ± SD of triplicate experiments, pNPP substrate
T1 sequence (P18031 1-322): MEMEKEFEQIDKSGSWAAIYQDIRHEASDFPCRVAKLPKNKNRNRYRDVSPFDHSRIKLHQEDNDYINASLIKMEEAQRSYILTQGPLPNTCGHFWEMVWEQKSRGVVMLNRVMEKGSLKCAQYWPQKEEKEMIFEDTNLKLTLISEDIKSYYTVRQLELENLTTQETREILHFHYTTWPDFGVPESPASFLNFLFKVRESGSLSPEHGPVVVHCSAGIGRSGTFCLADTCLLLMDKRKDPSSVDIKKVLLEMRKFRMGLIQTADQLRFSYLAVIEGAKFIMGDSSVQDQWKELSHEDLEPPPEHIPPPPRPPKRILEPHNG
Experimental: A truncated form of human recombinant PTP1B (amino acid 1-322) was purchased from Enzo Life Sciences (Farmingdale, NY, USA) and dithiothreitol (DTT) was purchased from Bio-Rad Laboratories (Hercules, CA, USA). All other chemicals and solvents were purchased from E. Merck, Fluka, and Sigma-Aldrich, unless otherwise stated.
The inhibitory activity of isolated compounds against truncated form of human recombinant PTP1B was evaluated using pNPP as a substrate [48]. The amount of p-nitrophenyl produced after enzymatic dephosphorylation of pNPP was estimated by measuring the absorbance at 405 nm using a micro-plate spectrophotometer (Molecular Devices, Sunnyvale, CA, USA).

PTP1B [2] = target: T2, PTP1B (Homo sapiens, UniProt P18031); assay: Enzyme kinetic analysis towards PTP1B (Lineweaver-Burk plot and secondary plots); type: biochemical
T2 sequence (P18031 1-322): T1 sequence (P18031 1-322)
Experimental: The inhibition constant (Ki) and inhibition mode for the inhibition of PTP1B was calculated by the Lineweaver-Burk plot and its secondary plot of the slope and the y-intercept of compounds [49, 50]. […] Graphs were generated using SigmaPlot 12.0 (Systat Software Inc., San Jose, CA, USA).

PTP1B [3] = conditions: in vitro; cited from earlier work
[4] = test system: insulin-resistant HepG2 cells; conditions: cited from earlier work
[5] = test system: streptozotocin-induced Sprague-Dawley rats; conditions: fucosterol from Pelvetia siliquosa; cited from earlier work

SMILES	IC50 (Yeast α-glucosidase) [µM]	IC50 ([1]; IC50 PTP1B) [µM]	other results
CC(=O)C=C=C1C(C)(C)CC(OC(C)=O)CC1(C)O [Compound 20, (3R)-4-[(2R,4S)-4-acetoxy-2-hydroxy-2,6,6-trimethylcyclohexylidene]but-3-en-2-one]	> 250	323.2 ± 0.84	
CC/C=C\C/C=C\C/C=C\CCCCCCC(=O)O [Compound 12, (8Z,11Z,14Z)-heptadeca-8,11,14-trienoic acid]	43.9 ± 0.77	11.5 ± 0.52	
CCCCCCCC/C=C\CCCCCCCC(=O)O [Compound 3, (Z)-octaec-9-enoic acid]	113 ± 2.47	13.7 ± 0.49	
CC/C=C\C/C=C\C/C=C\C/C=C\CCCCC(=O)O [Compound 10, (6Z,9Z,12Z,15Z)-octadeca-6,9,12,15-tetraenoic acid]	> 200	16.43 ± 0.07	
C/C=C(\CC[C@@H](C)[C@H]1CC[C@H]2[C@@H]3CC=C4C[C@@H](O)CC[C@]4(C)[C@H]3CC[C@]12C)C(C)C [Compound 5, fucosterol]	> 150	50.6 ± 1.86	Enzyme Kinetics Inhibition Type (PTP1B) (PTP1B [2]): non-competitive; PTP1B inhibition type (literature) (PTP1B [3]): non-competitive; effect on insulin resistance [4]: improved insulin resistance; anti-diabetic activity [5]: anti-diabetic activity
CCCC/C=C\C/C=C\C/C=C\CCCCCC(=O)O [Compound 8, (7Z,10Z,13Z)-octadeca-7,10,13-trienoic acid]	112 ± 1.44	13.58 ± 0.1	
CC(C)C1(CC[C@@H](C)[C@H]2CCC3C4CC=C5C[C@@H](O)CC[C@]5(C)C4CC[C@@]32C)OC1C (mixture of isomers) [Compound 6, 24R,28R and 24S,28R-epoxy-24-ethylcholesterol]	> 150	16.7 ± 0.36	Enzyme Kinetics Inhibition Type (PTP1B) (PTP1B [2]): Non-competitive; times stronger PTP1B inhibitory activity than 5 ([1]; ratio of IC50 versus fucosterol (5)): 3 times
CCC/C=C\CCCCCCCCCCC(=O)O [Compound 1, (Z)-hexadec-12-enoic acid]	48.1 ± 3.37	6.59 ± 0.09	
CCCCCCCCCCCCCCCC(=O)O [Compound 2, palmitic acid]	93.6 ± 3.68	49.4 ± 1.39	
CC1(C)[C@@H](O)CC[C@]2(C)[C@H]3C(=O)C=C4[C@H]5C[C@@](C)(C(=O)O)CC[C@]5(C)CC[C@@]4(C)[C@]3(C)CC[C@@H]12 [Compound 22, 18α-glycyrrhetinic acid]	113.3 ± 0.7		Enzyme Kinetics Inhibition Type (PTP1B) (PTP1B [2]): Competitive
CCCCCC\C=C/C=C\C=C/C=C\CCCCCC(=O)O [Compound 9, (7Z,9Z,11Z,13Z)-icosa-7,9,11,13-tetraenoic acid]	34.9 ± 2.39	10.7 ± 0.17	
COc1cc(C(O)C(CO)Oc2ccc(CCCO)cc2O)ccc1O (stereo not drawn) [Compound 15, 1-(4-hydroxy-3-methoxyphenyl)-2-[2-hydroxy-4-(3-hydroxypropyl)phenoxy]-1,3-propanediol]	> 250	> 400	
CC/C=C\C/C=C\C/C=C\CCCCCCC(=O)O [Compound 7, (8Z,11Z,14Z)-heptadeca-8,11,14-trienoic acid]	> 200	4.86 ± 1.36	
CC1(C)C2CC[C@]3(C)[C@H](C(=O)C=C4[C@@H]5C[C@@](C)(C(=O)O)CC[C@]5(C)CC[C@]43C)[C@@]2(C)CC[C@@H]1O (stereo partly drawn) [Compound 23, 18β-glycyrrhetinic acid]	129 ± 3.88		Enzyme Kinetics Inhibition Type (PTP1B) (PTP1B [2]): Competitive
COC(=O)C1OC(OC2CCC3(C)C(CCC4(C)C3C(=O)C=C3C5CC(C)(C(=O)O)CCC5(C)CCC34C)C2(C)C)C(OC2OC(C(=O)O)C(O)C(O)C2O)C(O)C1O [Compound 19, 18β-glycyrrhetinic acid-3-O-β-D-glucuronopyranosyl-1(→2)-β-D-glucuronide-6’-methyl ester]	> 150		α-glucosidase inhibitory activity (in words) (Yeast α-glucosidase): no activity; times stronger PTP1B inhibition than compound 18 ([1]; ratio of IC50 versus glycyrrhizin (18)): 2.2 times
C=C(COC(=O)CCCCCC(=O)OCC(O)COC(=O)CCC/C=C\C/C=C\C/C=C\CCCCCCCC)C(=O)O (stereo not drawn) [Compound 13, 2-(7′-(2″-hydroxy-3″-((5Z,8Z,11Z)-icosatrienoyloxy)propoxy)-7′-oxoheptanoyl)oxymethylpropenoic acid]	> 150	4.92 ± 0.01	Enzyme Kinetics Inhibition Type (PTP1B) (PTP1B [2]): Non-competitive
NCCc1ccc(O)cc1 [Compound 21, tyramine]	273 ± 5.65	188 ± 3.21	
CC1(C)CC2CC(C)(O2)/C1=C/C(=O)O (stereo not drawn) [Compound 17, madhusic acid A]	> 300		IC50 ([1]; read-out: IC50 PTP1B): > 400 µM
CC1(C)[C@@H](O[C@H]2O[C@H](C(=O)O)[C@@H](O)[C@H](O)[C@H]2O[C@@H]2O[C@H](C(=O)O)[C@@H](O)[C@H](O)[C@H]2O)CC[C@]2(C)[C@H]3C(=O)C=C4[C@@H]5C[C@@](C)(C(=O)O)CC[C@]5(C)CC[C@@]4(C)[C@]3(C)CC[C@@H]12 [Compound 18, 18β-glycyrrhetinic acid-3-O-β-D-glucuronopyranosyl-1(→2)-β-D-glucuronide]	> 150	110.3 ± 0.39	α-glucosidase inhibitory activity (in words) (Yeast α-glucosidase): no activity
OCC1OC(OCc2ccccc2)C(O)C(O)C1O (stereo not drawn) [Compound 16, benzyl alcohol alloside]	> 250	> 400	
C=CC(O)(CCC(C)C1CCC2C3CC=C4CC(O)CCC4(C)C3CCC12C)C(C)C (stereo not drawn) [Compound 4, 24R and 24S-saringosterol]	> 150	> 150	PTP1B inhibitory activity (in words) ([1]; under the tested concentration): no activity
COc1cc([C@H]2Oc3c(O)cc(CCCO)cc3[C@@H]2CO)ccc1O [Compound 14, cedrusin]	134 ± 3.86	174 ± 5.44	
